Measured values as given in patent US9688702B2, “Alpha-amino boronic acid derivatives, selective immunoproteasome inhibitors” (Ares Trading S.A, priority 2011, dated 2017).

Columns and labels:
[1] = molecular target: LMP7 (purified human immuno proteasome) (Homo sapiens, UniProt P28062); test: Determination of LMP7 activity (fluorescence intensity assay, Suc-LLVY-AMC); format: biochemical; details: for IC50: 40 μM Suc-LLVY-AMC, 37° C.
Protocol: Measurement of LMP7 inhibition is performed in 384 well format based on fluorescence intensity assay.
(§1) Purified human immuno proteasome (0.5 nM) and serial diluted compounds in DMSO (range of concentrations from 10 μM to 38 pM) or controls (0.5% DMSO) are incubated for 30 minutes at 37° C. in assay buffer containing 50 mM Tris pH 7.4 and 0.03% SDS. The reaction is initiated by the addition of the fluorogenic peptide substrate, Suc-LLVY-AMC (Bachem I-1395), at a concentration of 40 μM. After 90 minutes of incubation at 37° C., fluorescence intensity is measured at λex=350 nm and λem=450 nm with a fluorescence reader (BMG Pherastar reader or equivalent).
as §1, with “proteasome (0.25” for “proteasome (0.5”

[2] = molecular target: Beta5 (purified human constitutive proteasome) (Homo sapiens, UniProt P28074); test: Determination of Beta5 activity (fluorescence intensity assay, Suc-LLVY-AMC); format: biochemical; details: purified human constitutive proteasome 1.0 nM, 40 μM Suc-LLVY-AMC, 37° C.
Protocol: Measurement of Beta5 inhibition is performed in 384 well format based on fluorescence intensity assay.
as §1, with “human constitutive” for “human immuno”, “proteasome (1.0” for “proteasome (0.5”, “(Bachem 1-1395),” for “(Bachem I-1395),”

[3] = purified human immuno proteasome 0.5 nM
[4] = purified human immuno proteasome 0.25 nM (examples 79, 80, 83, 84, 85, 87, 88, 89, 90, 91, 93, 94, 96, 97, 101 and 110)

Compound	Selectivity LMP7 vs Beta5 [1]	IC50 [1, 3] [nM]	IC50 [2] [nM]	IC50 [1, 4] [nM]
COc1ccc(C(=O)CCC(=O)N[C@@H](Cc2cccc(C(F)(F)F)c2)B(O)O)cc1 [Example 26, {(1R)-1-{[4-(4-methoxyphenyl)-4-oxobutanoyl]amino}-2-[3-(trifluoromethyl)phenyl]ethyl}boronic acid]	+++ (+++: Selectivity > 30)	50 to 500	> 5000	–
COc1ccc(C(=O)CCC(=O)N[C@@H](Cc2cccc(OC(F)(F)F)c2)B(O)O)cc1 [Example 48, (R)-(1-(4-(4-methoxyphenyl)-4-oxobutanamido)-2-(3-(trifluoromethoxy)phenyl)ethyl)boronic acid]	++ (++: 10 < Selectivity < 30)	50 to 500	500 to 5000	–
CCc1cccc(C[C@H](NC(=O)CCC(=O)c2ccc(OC)cc2OC)B(O)O)c1 [Example 11, [(1R)-1-{[4-(2,4-dimethoxyphenyl)-4-oxobutanoyl]amino}-2-(3-ethylphenyl)ethyl]boronic acid]	+++ (+++: Selectivity > 30)	50 to 500	> 5000	–
COc1ccc(C(=O)CCC(=O)N[C@@H](Cc2ccsc2)B(O)O)c(OC)c1 [Example 13, [(1R)-1-{[4-(2,4-dimethoxyphenyl)-4-oxobutanoyl]amino}-2-(3-thienyl)ethyl]boronic acid]	++ (++: 10 < Selectivity < 30)	50 to 500	> 5000	–
O=C(CCc1ccccc1)N[C@@H](Cc1coc2ccccc12)B(O)O [Example 94, (R)-(2-(benzofuran-3-yl)-1-(3-phenylpropanamido)ethyl)boronic acid]	+++ (+++: Selectivity > 30)	–	< 50	< 50
COc1ccc(C(=O)CCC(=O)N[C@@H](Cc2cc(F)cc(OC)c2)B(O)O)cc1 [Example 47, (R)-(2-(3-fluoro-5-methoxyphenyl)-1-(4-(4-methoxyphenyl)-4-oxobutanamido)ethyl)boronic acid]	+++ (+++: Selectivity > 30)	50 to 500	> 5000	–
O=C(CCn1cnc2ccccc21)N[C@@H](Cc1cccc(OC(F)(F)F)c1)B(O)O [Example 59, (R)-(1-(3-(1H-benzo[d]imidazol-1-yl)propanamido)-2-(3-(trifluoromethoxy)phenyl)ethyl)boronic acid]	+ (+: Selectivity < 10)	< 50	50 to 500	–
CCc1cccc(C[C@H](NC(=O)CCn2nnc3ccccc32)B(O)O)c1 [Example 31, [(1R)-1-{[3-(1H-1,2,3-benzotriazol-1-yl)propanoyl]amino}-2-(3-ethylphenyl)ethyl]boronic acid]	++ (++: 10 < Selectivity < 30)	< 50	50 to 500	–
COc1ccc(C(=O)CCC(=O)N[C@@H](Cc2ccc(OC(F)(F)F)cc2)B(O)O)cc1 [Example 43, (R)-(1-(4-(4-methoxyphenyl)-4-oxobutanamido)-2-(4-(trifluoromethoxy)phenyl)ethyl)boronic acid]	++ (++: 10 < Selectivity < 30)	50 to 500	500 to 5000	–
O=C(CCc1ccc(F)cc1)N[C@@H](Cc1coc2ccccc12)B(O)O [Example 80, (R)-(2-(benzofuran-3-yl)-1-(3-(4-fluorophenyl)propanamido)ethyl) boronic acid]	+++ (+++: Selectivity > 30)	–	< 50	< 50
O=C(CCc1cn(-c2ccccc2)nn1)N[C@@H](Cc1ccsc1)B(O)O [Example 41, [(1R)-1-{[3-(1-phenyl-1H-1,2,3-triazol-4-yl)propanoyl]amino}-2-(3-thienyl)ethyl]boronic acid]	+++ (+++: Selectivity > 30)	< 50	500 to 5000	–
CN(CC(=O)N[C@@H](Cc1coc2ccccc12)B(O)O)S(C)(=O)=O [Example 91, (R)-(2-(benzofuran-3-yl)-1-(2-(N-methylmethylsulfonamido)acetamido)ethyl)boronic acid]	+++ (+++: Selectivity > 30)	–	50 to 500	< 50
COc1ccc(C(=O)CCC(=O)N[C@@H](Cc2ccc(OC)c(C(F)(F)F)c2)B(O)O)cc1 [Example 46, (R)-(2-(4-methoxy-3-(trifluoromethyl)phenyl)-1-(4-(4-methoxyphenyl)-4-oxobutanamido)ethyl)boronic acid]	–	50 to 500	> 5000	–
COc1cccc(CCC(=O)N[C@@H](Cc2coc3ccccc23)B(O)O)c1 [Example 84, (R)-(2-(benzofuran-3-yl)-1-(3-(3-methoxyphenyl)propanamido)ethyl) boronic acid]	++ (++: 10 < Selectivity < 30)	–	< 50	< 50
CCc1cccc(C[C@H](NC(C)=O)B(O)O)c1 [Example 77, (R)-(1-acetamido-2-(3-ethylphenyl)ethyl)boronic acid]	–	500 to 5000	–	–
COc1cc(F)cc(C[C@H](NC(=O)CCn2cc(-c3ccccc3)nn2)B(O)O)c1 [Example 65, (R)-(2-(3-fluoro-5-methoxyphenyl)-1-(3-(4-phenyl-1H-1,2,3-triazol-1-yl)propanamido)ethyl)boronic acid]	++ (++: 10 < Selectivity < 30)	< 50	50 to 500	–
O=C(CCn1cc(-c2ccccc2)nn1)N[C@@H](Cc1ccc(F)c(C(F)(F)F)c1)B(O)O [Example 71, (R)-(2-(4-fluoro-3-(trifluoromethyl)phenyl)-1-(3-(4-phenyl-1H-1,2,3-triazol-1-yl)propanamido)ethyl)boronic acid]	++ (++: 10 < Selectivity < 30)	< 50	50 to 500	–
CCc1cccc(C[C@H](NC(=O)CCC(=O)c2cccc(-c3ccccc3)c2)B(O)O)c1 [Example 19, [(1R)-1-[(4-biphenyl-3-yl-4-oxobutanoyl)amino]-2-(3-ethylphenyl)ethyl]boronic acid]	++ (++: 10 < Selectivity < 30)	50 to 500	500 to 5000	–
CCc1cccc(C[C@H](NC(=O)CCC(=O)c2ccccc2)B(O)O)c1 [Example 6, {(1R)-2-(3-ethylphenyl)-1-[(4-oxo-4-phenylbutanoyl)amino]ethyl}boronic acid]	+++ (+++: Selectivity > 30)	50 to 500	> 5000	–
COc1ccc(C(=O)C[C@@H](Cc2ccccc2)C(=O)N[C@@H](Cc2ccc(OC)c(C(F)(F)F)c2)B(O)O)cc1 [Example 45, ((R)-1-((R)-2-benzyl-4-(4-methoxyphenyl)-4-oxobutanamido)-2-(4-methoxy-3-(trifluoromethyl)phenyl)ethyl)boronic acid]	+++ (+++: Selectivity > 30)	< 50	500 to 5000	–
O=C(CCc1ccccc1F)N[C@@H](Cc1coc2ccccc12)B(O)O [Example 81, (R)-(2-(benzofuran-3-yl)-1-(3-(2-fluorophenyl)propanamido)ethyl) boronic acid]	++ (++: 10 < Selectivity < 30)	< 50	< 50	–
CCc1cccc(C[C@H](NC(=O)CCn2ncc3ccccc32)B(O)O)c1 [Example 28, ((1R)-2-(3-ethylphenyl)-1-{[3-(1H-indazol-1-yl)propanoyl]amino}ethyl)boronic acid]	++ (++: 10 < Selectivity < 30)	50 to 500	500 to 5000	–
O=C(CCC1CCCCC1)N[C@@H](Cc1coc2ccccc12)B(O)O [Example 86, (R)-(2-(benzofuran-3-yl)-1-(3-cyclohexylpropanamido)ethyl)boronic acid]	+++ (+++: Selectivity > 30)	< 50	50 to 500	–
CC(CC(=O)c1ccccc1)C(=O)N[C@@H](Cc1ccsc1)B(O)O (mixture of isomers) [Example 10, [(1R)-1-[(2-(RS)-methyl-4-oxo-4-phenylbutanoyl)amino]-2-(3-thienyl)ethyl]boronic acid]	–	500 to 5000	> 5000	–
Cn1ncc2cc(C[C@H](NC(=O)CCn3cc(-c4ccccc4)nn3)B(O)O)ccc21 [Example 103, (R)-(2-(1-methyl-1H-indazol-5-yl)-1-(3-(4-phenyl-1H-1,2,3-triazol-1-yl)propanamido)ethyl)boronic acid]	++ (++: 10 < Selectivity < 30)	< 50	< 50	–
